Measurements from the supplement of paper PMC11208160.

Test: recombinant barcode read abundance after kanamycin selection (control-corrected) (log10(CPM+1)); higher = more efficient recombination; sequences stand for … in AGTGCAGAGAAAATCGGCCAGTTTTCTCTGCCTGCAGTCCGCATGCCGT…AGATTTATGCAGCGGACTGCCTTTCTCCCAAAGTGATAAACCGGACAGTATCATGGACCGGTTTTCCCGGTAATCCGTATTTGCAAGGTTGGTTTCACT; site = the 11-nt target
Summary of the method: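 Pooled E. coli screen pairing targets with IS621 bridge RNA target-binding loops. Each oligo (promoter, target, barcode, J23119-driven first 104 bridge RNA bases) was Gibson-cloned into a vector with the remaining 73 bp and T7-inducible recombinase, then co-electroporated with a donor plasmid. Two replicates each were plated on chloramphenicol/ampicillin LB agar (control) or chloramphenicol/ampicillin/kanamycin with 0.1 mM IPTG. Recombination efficiency is recombinant-junction barcode counts as CPM, averaged, control-corrected, reported as log10(CPM+1).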
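Further: IS621 recombinase and bridge RNA in Escherichia coli cells.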

Sequence | recombinant barcode read abundance (log10)
TGTGAGTCTTGGGTTCTAACCTGTTGCAT (site TGTGAGTCTAC) | 0.856
CTAACCTCTTGGGTTCTAACCTGTTGCTG (site CTAACCTCTGA) | 0.0869
TGAAATGCTTGGGTTCTAACCTGTTGCCT (site TGATATGCTAG) | 0.288
ACGAGTACTTGGGTTCTAACCTGTTGCTG (site ACGAGTACTCA) | 1.02
ATTAAGTCTTGGGTTCTAACCTGTTGCCT (site AGTAAGTCTAG) | 0.0808
TCGAAACCTTGGGTTCTAACCTGTTGCCT (site TCGAACCCTAG) | 0.0112
GTATCACCTTGGGTTCTAACCTGTTGCCT (site GTATCACCTAG) | 1.44
GTCTGAGCTTGGGTTCTAACCTGTTGCCT (site GTCTGAGCTAG) | 0.355
TGCCGAACTTGGGTTCTAACCTGTTGCCT (site AGCCGAACTAG) | 0.0709
GCGCCTCCTTGGGTTCTAACCTGTTGCAT (site GCGGCTCCTAT) | 0
ACGAGTCCTTGGGTTCTAACCTGTTGCGT (site ACGAGTCCTAC) | 2.6
CTACTAGCTTGGGTTCTAACCTGTTGCAA (site CTACTAGCTAT) | 0.196
TGGTCCGCTTGGGTTCTAACCTGTTGCCT (site TGGTCCGCTAG) | 1.58
CAGGCGTCTTGGGTTCTAACCTGTTGCCT (site CAGGCGGCTAG) | 0.111
CCTGTAGCTTGGGTTCTAACCTGTTGCCT (site CCGGTAACTAG) | 0.0829
AGATGAGCTTGGGTTCTAACCTGTTGCGG (site AGATGAGCTCC) | 1.51
GTGTATACTTGGGTTCTAACCTGTTGCCT (site GTTTATACTAG) | 0.075
CCGTGCCCTTGGGTTCTAACCTGTTGCCT (site GCGTGCCCTAG) | 0.0432
TGGATTCCTTGGGTTCTAACCTGTTGCCT (site TGGATTCCTAG) | 0.223
ACCCAGCCTTGGGTTCTAACCTGTTGCAT (site ACCCAGCCTAT) | 2.45
TCCAACCCTTGGGTTCTAACCTGTTGCGG (site TCTAACCCTCC) | 0.3
TAGAACTCTTGGGTTCTAACCTGTTGCCT (site TAGAACTCTAG) | 0.914

Sequence | recombinant barcode read abundance (log10)
ACGAAGGCTTGGGTTCTAACCTGTTGCCT (site ACGAAGGCTAG) | 0.696
TTGTGAGCTTGGGTTCTAACCTGTTGCCA (site ACAGTTACTAT) | 0.0715
AATTGAGCTTGGGTTCTAACCTGTTGCCT (site AATTGAGCTAG) | 0.887
TACTATCCTTGGGTTCTAACCTGTTGCCT (site TACTATGCTAG) | 0
CCTAACGCTTGGGTTCTAACCTGTTGCCT (site CCTCGCGCTAG) | 0.0688
ATTGGTCCTTGGGTTCTAACCTGTTGCAT (site ATTGGTCCTAT) | 1.92
AGAAGTCCTTGGGTTCTAACCTGTTGCAG (site AGAAGTCCTCT) | 1.56
GATCATCCTTGGGTTCTAACCTGTTGCCT (site GTTCATCCTAG) | 0.0462
CTACTAACTTGGGTTCTAACCTGTTGCTT (site CTACTAACTAG) | 0.0714
GGAATACCTTGGGTTCTAACCTGTTGCCT (site GGAATTCCTAG) | 0.0368
TGGCAATCTTGGGTTCTAACCTGTTGCCT (site TGGCAATCTAG) | 0.257
TGGCTCCCTTGGGTTCTAACCTGTTGCGG (site TGGCTCCCTCC) | 0.188
CGTTCGACTTGGGTTCTAACCTGTTGCAT (site CGTACGACTAT) | 0.131
GCCATTACTTGGGTTCTAACCTGTTGCCT (site GCCATCACTAG) | 0.0409
CGGTAACCTTGGGTTCTAACCTGTTGCCT (site AGGTAACCTAG) | 0.429
CAAGTTGCTTGGGTTCTAACCTGTTGCCT (site CAAGTAGCTAG) | 0.14
GCGTACCCTTGGGTTCTAACCTGTTGCCT (site GCGTACCCTAG) | 1.41
AAAGTGTCTTGGGTTCTAACCTGTTGCCT (site AAGGTGTCTAG) | 0.489
TACCCTACTTGGGTTCTAACCTGTTGCAT (site TACCCTACTAT) | 0.654
GTGCCTCCTTGGGTTCTAACCTGTTGCTT (site GTGTATCCTAA) | 0.0505
AGTGAGACTTGGGTTCTAACCTGTTGCGG (site AGTGAGACTCC) | 2.99
CAGGGGACTTGGGTTCTAACCTGTTGCCG (site CAGGGGACTCG) | 0.734

Sequence | recombinant barcode read abundance (log10)
CTTCAGCCTTGGGTTCTAACCTGTTGCCT (site CTTCACCCTAG) | 0.259
TCATCTCCTTGGGTTCTAACCTGTTGCCT (site ACATCTCCTAG) | 0.188
GGAATACCTTGGGTTCTAACCTGTTGCCT (site GGAATACCTAG) | 1.36
GTAGGGACTTGGGTTCTAACCTGTTGCCG (site AGCCCTTCTAA) | 0.192
GTAGAGTCTTGGGTTCTAACCTGTTGCCT (site GAAGAGTCTAG) | 2.36
GCCGAGACTTGGGTTCTAACCTGTTGCCT (site GCCGAGACTAG) | 0.34
ACAGGTCCTTGGGTTCTAACCTGTTGCCG (site ACAGGTCCTCG) | 2.34
ATCGCTTCTTGGGTTCTAACCTGTTGCCT (site ATCGCTTCTAG) | 0.0338
TTGACGACTTGGGTTCTAACCTGTTGCCG (site TTGACGACTCG) | 0.452
ATCTTAGCTTGGGTTCTAACCTGTTGCCT (site ATCTTACCTAG) | 0.141
TCCAACACTTGGGTTCTAACCTGTTGCGG (site TCCAACACTCC) | 1.31
CATAGATCTTGGGTTCTAACCTGTTGCAT (site ATCTAGGCTCG) | 0.0128
CTAGACTCTTGGGTTCTAACCTGTTGCTG (site CTAGACTCTTA) | 0.188
CTACTAACTTGGGTTCTAACCTGTTGCAT (site CTACTAACTAA) | 0.173
ATCGGACCTTGGGTTCTAACCTGTTGCCT (site ATCGGAACTAG) | 0.0754
CTACCATCTTGGGTTCTAACCTGTTGCCT (site CTACCAGCTAG) | 0.278
GCCGATACTTGGGTTCTAACCTGTTGCCA (site AGTCTGCCTCA) | 0.134
AACGCTCCTTGGGTTCTAACCTGTTGCGG (site AACGCTCCTCC) | 0.503
ACGGCATCTTGGGTTCTAACCTGTTGCCT (site ACGGCCTCTAA) | 0.225
CCTTAGCCTTGGGTTCTAACCTGTTGCCT (site CCTTACCCTAG) | 0.0511
TACCGTTCTTGGGTTCTAACCTGTTGCCT (site TACCGTTCTAG) | 0.41
ATGACCTCTTGGGTTCTAACCTGTTGCCT (site ATGACCTCTAG) | 1.46

Sequence | recombinant barcode read abundance (log10)
CAGTAATCTTGGGTTCTAACCTGTTGCCT (site CAGTATTCTAG) | 0
TCGAGTACTTGGGTTCTAACCTGTTGCCT (site TCGAGTGCTAG) | 0.034
GGGGTCCCTTGGGTTCTAACCTGTTGCTT (site GGGGTCCCTAA) | 2.79
GGATACACTTGGGTTCTAACCTGTTGCCG (site TAGACGGCTAT) | 0.342
GGTCCCACTTGGGTTCTAACCTGTTGCCT (site GGGCTCACTAG) | 0.0761
GGCGTCCCTTGGGTTCTAACCTGTTGCCT (site GGCCTCCCTAG) | 0.286
GCATGTCCTTGGGTTCTAACCTGTTGCAT (site GCATGTCCTAT) | 1.37
TGTTGGTCTTGGGTTCTAACCTGTTGCTT (site GAACTCCCTCC) | 0.0579
GGCTGCCCTTGGGTTCTAACCTGTTGCCT (site GCCTGCCCTAG) | 0.57
GTACGTCCTTGGGTTCTAACCTGTTGCTT (site GTACGTCCTAG) | 0.299
GCTTTGCCTTGGGTTCTAACCTGTTGCCT (site GCTTTGCCTAG) | 0.409
CTCAAAGCTTGGGTTCTAACCTGTTGCCG (site TAGTCCACTGC) | 0.196
GAAGAGTCTTGGGTTCTAACCTGTTGCCT (site GAAGAGTCTAG) | 2.11
AGTGAGACTTGGGTTCTAACCTGTTGCGG (site ACCGAGACTCC) | 1.09
TTCACGCCTTGGGTTCTAACCTGTTGCCT (site TTCACGCCTAG) | 0.187
GTAAGTACTTGGGTTCTAACCTGTTGCCA (site GTAAGTACTTG) | 1.54
AATTGCCCTTGGGTTCTAACCTGTTGCCT (site ACTTGCCCTAG) | 0.00964
TCGGAGGCTTGGGTTCTAACCTGTTGCTG (site TCGGAGGCTCA) | 0.442
TCTAACCCTTGGGTTCTAACCTGTTGCAT (site TCTAAACCTAT) | 0.0654
CTCGGAGCTTGGGTTCTAACCTGTTGCCG (site CTCGGATCTTG) | 0.47
